Experimental data: ChEMBL document CHEMBL5126543, “Tandem construction of biological relevant aliphatic 5-membered N-heterocycles” (Eur J Med Chem, 2022)
Values after ≈ are worked out from the molar mass of the structure shown. Where a SMILES comes first, the peptide text is derived from it. [ ]: non-standard residue; d: D form. Pro(cis-4-CF3) = O=C(O)[C@@H]1C[C@H](C(F)(F)F)CN1; Pro(cis-4-F) = O=C(O)[C@@H]1C[C@H](F)CN1

Tests used:
MDA-MB-231 = assay: Antiproliferative activity against human MDA-MB-231 cells measured after 72 hrs by WST-1 assay; assay type: functional, cell-based; conditions: MDA-MB-231, 72 h
SNB-19 = assay: Antiproliferative activity against human SNB-19 cells measured after 72 hrs by WST-1 assay; assay type: functional, cell-based; conditions: SNB-19, 72 h
[1] = Cytotoxicity against HFF-1 cells measured after 72 hrs by WST-1 assay; assay type: toxicity, cell-based; conditions: human
C32 = assay: Antiproliferative activity against human C32 cells measured after 72 hrs by WST-1 assay; assay type: functional, cell-based; conditions: C32, 72 h
A549 = assay: Cytotoxicity against human A549 cells treated for 72 hrs by MTT assay; assay type: functional, cell-based; conditions: A549, 72 h
HeLa = assay: Cytotoxicity against human HeLa cells treated for 72 hrs by MTT assay; assay type: functional, cell-based
MCF7 = assay: Cytotoxicity against human MCF7 cells treated for 72 hrs by MTT assay; assay type: functional, cell-based; conditions: MCF7, 72 h
SK-BR-3 = assay: Cytotoxicity against human SK-BR-3 cells treated for 72 hrs by MTT assay; assay type: functional, cell-based; conditions: SK-BR-3, 72 h
PC-3 = assay: Cytotoxicity against human PC-3 cells treated for 72 hrs by MTT assay; assay type: functional, cell-based; conditions: PC-3, 72 h
Priestia megaterium = assay: Antimicrobial activity against Bacillus megaterium Bm11 incubated for 18 to 20 hrs; assay type: functional; conditions: time 18-20 hrs
Candida albicans = assay: Antimicrobial activity against Candida albicans ATCC 24433 incubated for 18 to 20 hrs; assay type: functional; conditions: time 18-20 hrs
Escherichia coli = assay: Antimicrobial activity against Escherichia coli ATCC 25922 incubated for 18 to 20 hrs; assay type: functional; conditions: time 18-20 hrs
[2] = tested on: Staphylococcus epidermidis; assay: Antimicrobial activity against Staphylococcus epidermidis ATCC 12228 incubated for 18 to 20 hrs; assay type: functional; conditions: time 18-20 hrs
Pseudomonas aeruginosa = assay: Antimicrobial activity against Pseudomonas aeruginosa ATCC 27853 incubated for 18 to 20 hrs; assay type: functional; conditions: time 18-20 hrs

| IC50 (MDA-MB-231) [µM] | Structure (SMILES) | IC50 (SNB-19) [µM] | IC50 at 72 h [1] [µM] | IC50 (C32) [µM] | IC50 (A549) [µM] | IC50 (HeLa) [µM] | IC50 (MCF7) [µM] | IC50 (SK-BR-3) [µM] | IC50 (PC-3) [µM] | also measured |
| --- | --- | --- | --- | --- | --- | --- | --- | --- | --- | --- |
| 7.35 | Cn1cnc2nc(SCC#CCN3CCCCC3)nc(SCC#CCN3CCCCC3)c21 | 4.64 | 3.98 | 6.39 | – | – | – | – | – | – |
| – | Clc1ccc2c(Nc3ccc(CN4CCOCC4)c(-c4ccccc4)c3)ccnc2c1 | – | – | – | 69 | 54.4 | > 200 | 76.5 | 11.7 | – |
| – | Clc1ccc2c(Nc3ccc(CN4CCCCC4)c(-c4ccccc4)c3)ccnc2c1 | – | – | – | > 210 | 5.57 | > 200 | 64.3 | 74.4 | – |
| 74 | Cn1c(SCC#CCN2CCOCC2)nc2nc(Cl)nc(SCC#CCN3CCOCC3)c21 | 26.1 | 36.4 | 4.08 | – | – | – | – | – | – |
| – | CC[C@H](C)[C@H](NC(=O)[C@H](CCCNC(=N)N)NC(=O)CNC(=O)[C@H](CC(C)C)NC(=O)[C@H](Cc1ccccc1)NC(=O)[C@H](CCCCN)NC(=O)[C@H](CO)NC(=O)[C@H](Cc1ccccc1)NC(=O)[C@H](Cc1c[nH]c2ccccc12)NC(=O)[C@H](CCC(N)=O)NC(=O)[C@@H]1C[C@H](F)CN1C(=O)[C@@H](NC(=O)[C@@H](N)Cc1ccccc1)C(C)C)C(=O)N[C@@H](CC(C)C)C(N)=O (H-FV[Pro(cis-4-F)]QWFSKFLGRIL-NH2) | – | – | – | – | – | – | – | – | MIC (Priestia megaterium): 3.12 µM (≈ 5.48 µg/mL); MIC (Candida albicans): 12.5 µM (≈ 21.9 µg/mL); MIC (Escherichia coli): 12.5 µM (≈ 21.9 µg/mL); MIC [2]: 3.12 µM (≈ 5.48 µg/mL); MIC (Pseudomonas aeruginosa): 12.5 µM (≈ 21.9 µg/mL) |
| 38.1 | Cn1c(SCC#CCN2CCCCC2)nc2nc(Cl)nc(SCC#CCN3CCCCC3)c21 | 11.6 | 5.5 | 19.1 | – | – | – | – | – | – |
| – | Clc1ccc(-c2cc(Nc3ccnc4cc(Cl)ccc34)ccc2CN2CCCCC2)cc1 | – | – | – | > 200 | > 200 | > 200 | 2.98 | > 200 | – |
| 50.8 | Cn1cnc2nc(SCC#CCN3CCOCC3)nc(SCC#CCN3CCOCC3)c21 | 21.5 | 0.37 | 21.5 | – | – | – | – | – | – |
| – | CC[C@H](C)[C@H](NC(=O)[C@H](CCCNC(=N)N)NC(=O)CNC(=O)[C@H](CC(C)C)NC(=O)[C@H](Cc1ccccc1)NC(=O)[C@H](CCCCN)NC(=O)[C@H](CO)NC(=O)[C@H](Cc1ccccc1)NC(=O)[C@H](Cc1c[nH]c2ccccc12)NC(=O)[C@H](CCC(N)=O)NC(=O)[C@@H]1C[C@H](C(F)(F)F)CN1C(=O)[C@@H](NC(=O)[C@@H](N)Cc1ccccc1)C(C)C)C(=O)N[C@@H](CC(C)C)C(N)=O (H-FV[Pro(cis-4-CF3)]QWFSKFLGRIL-NH2) | – | – | – | – | – | – | – | – | MIC (Priestia megaterium): 3.12 µM (≈ 5.63 µg/mL); MIC (Candida albicans): 12.5 µM (≈ 22.6 µg/mL); MIC (Escherichia coli): 12.5 µM (≈ 22.6 µg/mL); MIC [2]: 3.12 µM (≈ 5.63 µg/mL); MIC (Pseudomonas aeruginosa): 25 µM (≈ 45.1 µg/mL) |
| – | CCN(CC)Cc1ccc(Nc2ccnc3cc(Cl)ccc23)cc1 | – | – | – | > 250 | 2.03 | > 250 | 121 | > 250 | – |
| – | Clc1ccc2c(Nc3ccc(CN4CCOCC4)cc3)ccnc2c1 | – | – | – | > 250 | < 1 | 69.5 | 6.16 | 11.7 | – |
| – | Clc1ccc2c(Nc3ccc(CN4CCCC4)cc3)ccnc2c1 | – | – | – | 58.8 | 28 | 46.9 | 12.7 | 42.7 | – |
| – | COc1cccc2c1C(=O)c1c(O)c3c(c(O)c1C2=O)C[C@@](O)(C(=O)CO)C[C@@H]3O[C@H]1C[C@H](N)[C@H](O)[C@H](C)O1 [DOXORUBICIN] | – | – | – | – | 2.45 | 3.62 | 2.36 | 1.66 | – |
| 472 | Cn1c(SCC#CCN2CCCC2)nc2c1c(=O)[nH]c(=O)n2C | 177 | 34.3 | 51.1 | – | – | – | – | – | – |
| – | CN1CCN(Cc2ccc(Nc3ccnc4cc(Cl)ccc34)cc2-c2ccc(Cl)cc2)CC1 | – | – | – | 43.5 | < 1 | 25 | 16.8 | 24.2 | – |
| 364 | Cn1c(SCC#CCN2CCCCC2)nc2c1c(=O)[nH]c(=O)n2C | 166 | 30.4 | 355 | – | – | – | – | – | – |
| – | CCN(CC)Cc1ccc(Nc2ccnc3cc(Cl)ccc23)cc1-c1ccccc1 | – | – | – | 33.6 | > 200 | > 200 | 3.65 | 34.2 | – |
